Measured values published in patent US20110038885A1, “CHEMOKINE ANALOGS” (priority 2007, published 2011).
pEC50: −log10 of the molar value. Numbered stars: 1 amine (or outer) side, 2 acyl side, 3 side chain; on linkers, the order of the positions; unused ones are H or OH. Bridge positions count the residues as written; N and C are the ends. Square brackets hold non-standard residues; d marks the D form. Peptide text beside a SMILES is read from it. * marks the point of attachment. NH(CH2)8CO = O=C(CCCCCCCCN[*:1])[*:2]; Isobutyryl = CC(C)C(=O)*; Orn = NCCC[C@H](N)C(=O)O; Dab = NCC[C@H](N)C(=O)O; Dap = NC[C@H](N)C(=O)O; Aoc = NCCCCCCCC(=O)O; Ahp = NCCCCCCC(=O)O; Ahx = NCCCCCC(=O)O; Ava = NCCCCC(=O)O

tested on: MCP-1; assay: In vitro chemotaxis (trans-well migration) v MCP-1; type: cell-based, human
Protocol: To determine whether an agent inhibits a chemokine-induced activity, such as macrophage recruitment, varying amounts of the agent are mixed with cells in the presence of a known chemoattractant. For example, a range of known concentrations of an agent, e.g., a chemokine peptide, is incubated with a defined number (e.g., 10^4-10^6) of human THP-1 monocyte cells in individual wells of the top compartment of a trans-well plate. Chemokine, at a concentration known to cause significant migration of THP-1 cells in the trans-well migration assay, is placed in the lower compartment of a trans-well plate. Cells are then incubated at 37° C. for a period sufficient to allow migration, e.g., 4 hours. After incubation, the cells are gently removed from the top of the filter with a pipette, 20 μl of 20 mM EDTA in simple PBS is added into each top well, and incubated for 20 minutes at 4° C. The filter is carefully flushed with media using a gentle flow, and removed. A standard curve consisting of a two-fold dilution series of THP-1 cells (in 29 μl) is placed to accurately quantify the number of cells that have migrated. Migrated cells are stained with 3 μl of MTT stock dye solution which is added directly into each well (5 mg/ml in RPMI-1640 without phenol red) (Sigma Chemical Co., St. Louis, Mo., USA) and incubated at 37° C. for 4 hours. The media is carefully aspirated from each well, and the converted dye is solubilized by 20 μl of DMSO. Absorbance of converted dye is measured at a wavelength of 595 nm using an ELISA plate reader. The number of migrated cells in each well is then determined by interpolation of the standard curve (see also Imai et al., J. Biol. Chem., 272:15036, 1997). Any method suitable for counting cells can be used, for example, counting with a hemocytometer, incubation of the cells with MTT (see above), or FACS analysis. A negative control assay is also performed, using TGFβ or another non-chemokine chemoattractant (e.g., IL1β or TNFα). To assess whether the agent is cytotoxic, the same concentrations of agent are incubated with THP-1 cells. Agents which 1) are not cytotoxic at levels which inhibit migration, 2) are ineffective at inhibiting the negative control-induced migration, and 3) reduce or inhibit chemokine-induced THP-1 migration, are agents which fall within the scope of the invention.

Row | Compound | pEC50
1 | CC[C@H](C)[C@@H]1NC(=O)[C@H](Cc2c[nH]c3ccccc23)NC(=O)[C@H](CCCCN)NC(=O)CCCCNC(=O)C[C@@H](C(N)=O)NC(=O)[C@H](CCC(N)=O)NC1=O [Example 90, c(Apn-Lys-Trp-Ile-Gln-Asp)-NH2] ([Ava]KWIQD-NH2; lactam N-6) | 8.15
2 | CC[C@H](C)[C@@H]1NC(=O)[C@H](Cc2c[nH]c3ccccc23)NC(=O)[C@H](CCCCN)NC(=O)CCCCNC(=O)CC[C@@H](C(N)=O)NC(=O)[C@H](CCC(N)=O)NC1=O [Example 91, c(Apn-Lys-Trp-Ile-Gln-Glu)-NH2] ([Ava]KWIQE-NH2; lactam N-6) | 8.05
3 | CC[C@H](C)[C@@H]1NC(=O)[C@H](Cc2c[nH]c3ccccc23)NC(=O)[C@H](CCCCN)NC(=O)CCCCCNC(=O)CC[C@@H](C(N)=O)NC(=O)[C@H](CCC(N)=O)NC1=O [Example 92, c(Ahx-Lys-Trp-Ile-Gln-Glu)-NH2] ([Ahx]KWIQE-NH2; lactam N-6) | 8.30
4 | CC[C@H](C)[C@@H]1NC(=O)[C@H](Cc2c[nH]c3ccccc23)NC(=O)[C@H](CCCCN)NC(=O)CCCCCCNC(=O)C[C@@H](C(N)=O)NC(=O)[C@H](CCC(N)=O)NC1=O [Example 93, c(Aha-Lys-Trp-Ile-Gln-Asp)-NH2] ([Ahp]KWIQD-NH2; lactam N-6) | 8.10
5 | CC[C@H](C)[C@@H]1NC(=O)[C@H](Cc2c[nH]c3ccccc23)NC(=O)[C@H](CCCCN)NC(=O)CCCCCCNC(=O)CC[C@@H](C(N)=O)NC(=O)[C@H](CCC(N)=O)NC1=O [Example 94, c(Aha-Lys-Trp-Ile-Gln-Glu)-NH2] ([Ahp]KWIQE-NH2; lactam N-6) | 8.00
6 | CC[C@H](C)[C@@H]1NC(=O)[C@H](Cc2c[nH]c3ccccc23)NC(=O)[C@H](CCCCN)NC(=O)CCCCCCCNC(=O)C[C@@H](C(N)=O)NC(=O)[C@H](CCC(N)=O)NC1=O [Example 95, c(Aoc-Lys-Trp-Ile-Gln-Asp)-NH2] ([Aoc]KWIQD-NH2; lactam N-6) | 7.70
7 | CC[C@H](C)[C@@H]1NC(=O)[C@H](Cc2c[nH]c3ccccc23)NC(=O)[C@H](CCCCN)NC(=O)CCCCCCCNC(=O)CC[C@@H](C(N)=O)NC(=O)[C@H](CCC(N)=O)NC1=O [Example 96, c(Aoc-Lys-Trp-Ile-Gln-Glu)-NH2] ([Aoc]KWIQE-NH2; lactam N-6) | 8.40
8 | CC[C@H](C)[C@@H]1NC(=O)[C@H](Cc2c[nH]c3ccccc23)NC(=O)[C@H](CCCCN)NC(=O)CCCCCCCCNC(=O)C[C@@H](C(N)=O)NC(=O)[C@H](CCC(N)=O)NC1=O [Example 97, c(Anc-Lys-Trp-Ile-Gln-Asp)-NH2] ([NH(CH2)8CO]KWIQD-NH2; lactam N-6) | 7.82
9 | CC[C@H](C)[C@@H]1NC(=O)[C@H](Cc2c[nH]c3ccccc23)NC(=O)[C@H](CCCCN)NC(=O)CCCCCCCCNC(=O)CC[C@@H](C(N)=O)NC(=O)[C@H](CCC(N)=O)NC1=O [Example 98, c(Anc-Lys-Trp-Ile-Gln-Glu)-NH2] ([NH(CH2)8CO]KWIQE-NH2; lactam N-6) | 7.82
10 | CC[C@H](C)[C@@H]1NC(=O)[C@H](Cc2c[nH]c3ccccc23)NC(=O)[C@H](CCCCN)NC(=O)[C@@H](NC(=O)C(C)C)CC(=O)NCCC[C@@H](C(N)=O)NC(=O)[C@H](CCC(N)=O)NC1=O [Example 99, Isobutyryl-c(Asp-Lys-Trp-Ile-Gln-Orn)-NH2] (Isobutyryl-DKWIQ[Orn]-NH2; lactam 1-6) | 7.30
11 | CC[C@H](C)[C@@H]1NC(=O)[C@H](Cc2c[nH]c3ccccc23)NC(=O)[C@H](CCCCN)NC(=O)[C@@H](NC(=O)C(C)C)CCC(=O)NC[C@@H](C(N)=O)NC(=O)[C@H](CCC(N)=O)NC1=O [Example 100, Isobutyryl-c(Glu-Lys-Trp-Ile-Gln-Dap)-NH2] (Isobutyryl-EKWIQ[Dap]-NH2; lactam 1-6) | 8.00
12 | CC[C@H](C)[C@@H]1NC(=O)[C@H](Cc2c[nH]c3ccccc23)NC(=O)[C@H](CCCCN)NC(=O)[C@@H](NC(=O)C(C)C)CCC(=O)NCC[C@@H](C(N)=O)NC(=O)[C@H](CCC(N)=O)NC1=O [Example 101, Isobutyryl-c(Glu-Lys-Trp-Ile-Gln-Dab)-NH2] (Isobutyryl-EKWIQ[Dab]-NH2; lactam 1-6) | 8.40
13 | CC[C@H](C)[C@@H]1NC(=O)[C@H](Cc2c[nH]c3ccccc23)NC(=O)[C@H](CCCCN)NC(=O)[C@@H](NC(=O)C(C)C)CCC(=O)NCCC[C@@H](C(N)=O)NC(=O)[C@H](CCC(N)=O)NC1=O [Example 102, Isobutyryl-c(Glu-Lys-Trp-Ile-Gln-Orn)-NH2] (Isobutyryl-EKWIQ[Orn]-NH2; lactam 1-6) | 8.00
14 | CC[C@H](C)[C@@H]1NC(=O)[C@H](Cc2c[nH]c3ccccc23)NC(=O)[C@H](CCCCN)NC(=O)[C@@H](NC(=O)C(C)C)CCC(=O)NCCCC[C@@H](C(N)=O)NC(=O)[C@H](CCC(N)=O)NC1=O [Example 103, Isobutyryl-c(Glu-Lys-Trp-Ile-Gln-Lys)-NH2] (Isobutyryl-EKWIQK-NH2; lactam 1-6) | 8.10
15 | CC[C@H](C)[C@@H]1NC(=O)[C@H](Cc2c[nH]c3ccccc23)NC(=O)[C@H](CCCCN)NC(=O)[C@@H](NC(=O)C(C)C)CNC(=O)C[C@@H](C(N)=O)NC(=O)[C@H](CCC(N)=O)NC1=O [Example 104, Isobutyryl-c(Dap-Lys-Trp-Ile-Gln-Asp)-NH2] (Isobutyryl-[Dap]KWIQD-NH2; lactam 1-6) | 7.30
16 | CC[C@H](C)[C@@H]1NC(=O)[C@H](Cc2c[nH]c3ccccc23)NC(=O)[C@H](CCCCN)NC(=O)[C@@H](NC(=O)C(C)C)CCNC(=O)C[C@@H](C(N)=O)NC(=O)[C@H](CCC(N)=O)NC1=O [Example 105, Isobutyryl-c(Dab-Lys-Trp-Ile-Gln-Asp)-NH2] (Isobutyryl-[Dab]KWIQD-NH2; lactam 1-6) | 7.82
17 | CC[C@H](C)[C@@H]1NC(=O)[C@H](Cc2c[nH]c3ccccc23)NC(=O)[C@H](CCCCN)NC(=O)[C@@H](NC(=O)C(C)C)CCCCNC(=O)C[C@@H](C(N)=O)NC(=O)[C@H](CCC(N)=O)NC1=O [Example 106, Isobutyryl-c(Lys-Lys-Trp-Ile-Gln-Asp)-NH2] (Isobutyryl-KKWIQD-NH2; lactam 1-6) | 8.10
18 | CC[C@H](C)[C@@H]1NC(=O)[C@H](Cc2c[nH]c3ccccc23)NC(=O)[C@H](CCCCN)NC(=O)[C@@H](NC(=O)C(C)C)CCNC(=O)CC[C@@H](C(N)=O)NC(=O)[C@H](CCC(N)=O)NC1=O [Example 107, Isobutyryl-c(Dab-Lys-Trp-Ile-Gln-Glu)-NH2] (Isobutyryl-[Dab]KWIQE-NH2; lactam 1-6) | 8.10
19 | CC[C@H](C)[C@@H]1NC(=O)[C@H](Cc2c[nH]c3ccccc23)NC(=O)[C@H](CCCCN)NC(=O)[C@@H](NC(=O)C(C)C)CCCNC(=O)CC[C@@H](C(N)=O)NC(=O)[C@H](CCC(N)=O)NC1=O [Example 108, Isobutyryl-c(Orn-Lys-Trp-Ile-Gln-Glu)-NH2] (Isobutyryl-[Orn]KWIQE-NH2; lactam 1-6) | 8.10
20 | CC[C@H](C)[C@@H]1NC(=O)[C@H](Cc2c[nH]c3ccccc23)NC(=O)[C@H](CCCCN)NC(=O)[C@@H](NC(=O)C(C)C)CCCCNC(=O)CC[C@@H](C(N)=O)NC(=O)[C@H](CCC(N)=O)NC1=O [Example 109, Isobutyryl-c(Lys-Lys-Trp-Ile-Gln-Glu)-NH2] (Isobutyryl-KKWIQE-NH2; lactam 1-6) | 8.10
21 | CC[C@H](C)[C@@H]1NC(=O)[C@H](Cc2c[nH]c3ccccc23)NC(=O)[C@H](CCCCN)NC(=O)[C@@H](NC(C)=O)CC(=O)NC[C@@H](C(N)=O)NC(=O)[C@H](CCC(N)=O)NC1=O [Example 110, Ac-c(Asp-Lys-Trp-Ile-Gln-Dap)-NH2] (Ac-DKWIQ[Dap]-NH2; lactam 1-6) | 8.10
22 | CC[C@H](C)[C@@H]1NC(=O)[C@H](Cc2c[nH]c3ccccc23)NC(=O)[C@H](CCCCN)NC(=O)[C@@H](NC(C)=O)CC(=O)NCC[C@@H](C(N)=O)NC(=O)[C@H](CCC(N)=O)NC1=O [Example 111, Ac-c(Asp-Lys-Trp-Ile-Gln-Dab)-NH2] (Ac-DKWIQ[Dab]-NH2; lactam 1-6) | 8.40
23 | CC[C@H](C)[C@@H]1NC(=O)[C@H](Cc2c[nH]c3ccccc23)NC(=O)[C@H](CCCCN)NC(=O)[C@@H](NC(C)=O)CC(=O)NCCC[C@@H](C(N)=O)NC(=O)[C@H](CCC(N)=O)NC1=O [Example 112, Ac-c(Asp-Lys-Trp-Ile-Gln-Orn)-NH2] (Ac-DKWIQ[Orn]-NH2; lactam 1-6) | 8.22
24 | CC[C@H](C)[C@@H]1NC(=O)[C@H](Cc2c[nH]c3ccccc23)NC(=O)[C@H](CCCCN)NC(=O)[C@@H](NC(C)=O)CCC(=O)NC[C@@H](C(N)=O)NC(=O)[C@H](CCC(N)=O)NC1=O [Example 113, Ac-c(Glu-Lys-Trp-Ile-Gln-Dap)-NH2] (Ac-EKWIQ[Dap]-NH2; lactam 1-6) | 7.52
